Earlier results as cited in US20260216276A1, “COMPOSITIONS AND METHODS FOR MODULATING COMPLEMENT ACTIVITY” (UCB HOLDINGS, INC., priority 2019, published 2026).
Starred links: 1 amine or outer side, 2 acyl side, 3 side chain; linkers in the order of their positions; H or OH if unused. Positions of bridges follow the written chain, without caps; N, C: chain ends. Non-standard residues stand in square brackets, D forms with d. Residues, ends and D or L forms follow the SMILES beside them. Groups on a side chain read outwards from the residue. *: point of attachment. PEG24 = NCCOCCOCCOCCOCCOCCOCCOCCOCCOCCOCCOCCOCCOCCOCCOCCOCCOCCOCCOCCOCCOCCOCCOCCOCCC(=O)O; X1 = N=C(N)NCCC[C@H](N[*:1])C(=O)C[C@@H](Cc1ccccc1)C(=O)[*:2]; Trp(7-aza) = N[C@@H](Cc1c[nH]c2ncccc12)C(=O)O; γGlu = O=C(O)[C@H](CCC(=O)[*:2])N[*:1]; Palmitoyl = CCCCCCCCCCCCCCCC(=O)*; NMeD = CN[C@@H](CC(=O)O)C(=O)O; Chg = N[C@H](C(=O)O)C1CCCCC1; Tle = CC(C)(C)[C@H](N)C(=O)O

Experiments:
[1] = tested on: complement component 5 (C5); details: including p.R885>H/C; cited from earlier work
[2] = tested on: surface-bound C5b-9 or soluble membrane attack complex (sC5b-9); details: unlike eculizumab; cited from earlier work

## CCCCCCCCCCCCCCCC(=O)N[C@@H](CCC(=O)NCCOCCOCCOCCOCCOCCOCCOCCOCCOCCOCCOCCOCCOCCOCCOCCOCCOCCOCCOCCOCCOCCOCCOCCOCCC(=O)NCCCC[C@H](NC(=O)[C@@H](NC(=O)[C@@H]1CCCN1C(=O)[C@H](Cc1ccc(O)cc1)NC(=O)[C@H](CCC(=O)[O-])NC(=O)[C@H](Cc1c[nH]c2ncccc12)NC(=O)[C@H](Cc1ccc(O)cc1)NC(=O)[C@@H](NC(=O)[C@H](CC(=O)[O-])N(C)C(=O)[C@@H]1CC(=O)NCCCC[C@H](NC(C)=O)C(=O)N[C@@H](C(C)C)C(=O)N[C@@H](CCC(=O)O)C(=O)N[C@@H](CCCNC(=N)N)C(=O)C[C@@H](Cc2ccccc2)C(=O)N1)C(C)(C)C)C1CCCCC1)C(=O)[O-])C(=O)[O-].[Na+].[Na+].[Na+].[Na+] [zilucoplan] (Ac-KVE[X1]D[NMeD][Tle]Y[Trp(7-aza)]EYP[Chg]K([PEG24-γGlu-Palmitoyl])-OH; lactam 1-5)
[1]
  binding and inhibitory activities in the presence of clinically relevant human C5 polymorphisms: not affected
[2]
  binding to surface-bound C5b-9 or sC5b-9: does not bind
